Where two headings read alike, the source gives them in different places.
How the values were obtained:
[1] = Toxicokinetic assessment in wild-type CByB6F1 mice (Day 14); type: in vivo
Procedure: TK animals were included for the vehicle control (n = 4 sex) and pretomanid-treated groups (n = 10 sex/group). The TK cohort animals were dosed by oral gavage once daily for 14 consecutive days.
Toxicokinetic blood samples (300 μL for males and 250 μL for females) were collected in K3EDTA tubes after 14 doses from the TK cohort via retro-orbital bleeding under 70% CO2/30% O2 anesthesia. On Day 14, control mice were bled once 2 hours after dosing. On Day 14 and 15, Pretomanid-treated mice were bled predose, 0.5, 1, 3, 6, and 24 hours post dose. TK animals were euthanized after their final blood collection.
Collected blood was stored on wet ice until the samples were processed to plasma. Blood samples were centrifuged at 4±2°C and 8000 g for 5 minutes. Plasma was snap frozen in liquid nitrogen and stored in a deep freezer (≤−60°C) within 60 minutes of bleeding the TK animals.
Pretomanid and the M50 metabolite were quantified in mouse plasma by liquid chromatography-tandem mass spectrometry (LC-MS/MS) after protein precipitation. Aliquots of 25 µL of plasma were spiked with internal standards (PA-824-d5 or morphine) and proteins were precipitated in 1% formic acid in acetonitrile. A partial supernatant from each sample was transferred to a clean plate and diluted in acetonitrile/water (40:60) for pretomanid and deionized water for M50. Supernatant was analyzed for pretomanid or M50 using validated LC-MS/MS methods with a linear range of 20 to 10,000 ng/mL for pretomanid and 10 to 5,000 ng/mL for M50 (methods validated at Alliance Pharma, Malvern PA).
Sample collection time and plasma concentration data were analyzed to derive TK parameters by standard model independent methods based on the mean plasma concentration-time data for each dose group. The TK analyses of the plasma concentration profiles were performed using non-compartmental analysis in Phoenix WinNonlin Professional 7.0 (Certara, L.P., St. Louis, MO, USA). Concentration values below the lower limit of quantitation were treated as zeros for analysis purposes.

[2] = test system: Salmonella typhimurium TA98, TA100, TA1535, TA1537 and Escherichia coli WP2uvrA; assay: Bacterial reverse mutation (Ames) assay, overall over five tester strains; type: cell-based; conditions: up to 5000 μg/plate
Procedure: (§1) Pretomanid and metabolite M50 were evaluated over a range of concentrations, with and without an added metabolic activation system, in five tester strains: Salmonella typhimurium histidine auxotrophs TA98, TA100, TA1535, and TA1537 [9] and the Escherichia coli tryptophan auxotroph WP2uvrA. S. typhimurium strains were received from Dr. Bruce Ames, Department of Biochemistry, University of California (Berkeley, CA). The E. coli strain was received from The National Collection of Industrial Bacteria, Torrey Research Station, Aberdeen, Scotland (United Kingdom). The metabolic activation system was a liver homogenate (S9) mix. The S9 component was prepared from male Sprague-Dawley rats that had been injected (intraperitoneally) with Aroclor^TM 1254 at 500 mg/kg, 5 days before sacrifice. The S9 mix was prepared immediately before use and contained 10% S9, 5 mM glucose-6-phosphate, 4 mM β-nicotinamide adenine dinucleotide phosphate, 8 mM MgCl2 and 33 mM KCl in a 100 mM phosphate buffer at pH 7.4. Pretomanid was tested at 0.05 to 5000 μg/plate. Metabolite M50 was tested at 78 to 2500 μg/plate. A negative (solvent) control culture and appropriate positive control cultures were included in each assay.
(§2) Bacteria were exposed to test materials by the plate incorporation method originally described by Ames et al and updated by Maron and Ames. Bottom agar was Vogel-Bonner minimal medium E [12] with 1.5% (w/v) agar, and the top Agar was 0.7% (w/v) agar and 0.5% (w/v) NaCl. After incubation, cultures were evaluated using a dissecting microscope for precipitation or cytotoxicity, and revertant colonies were counted. The mean numbers of revertant colonies in various cultures were compared to reach conclusions about assay validity and mutagenic potential. For the test article to be evaluated positive, it must cause a dose-related increase in the mean revertants per plate of at least one tester strain with a minimum of two increasing concentrations of test article.

[3] = test system: Salmonella typhimurium TA100; assay: Bacterial reverse mutation (Ames) assay, plate incorporation; type: cell-based
Procedure: as §1, §2

[4] = test system: Salmonella typhimurium TA1537; assay: as above; type: cell-based
Procedure: as §1, §2

[5] = test system: Salmonella typhimurium TA1535; assay: as above; type: cell-based
Procedure: as §1, §2

[6] = test system: Salmonella typhimurium TA98; assay: as above; type: cell-based
Procedure: as §1, §2

Escherichia coli WP2uvrA = assay: as above
Procedure: as §1, §2

SMILES: O=[N+]([O-])c1cn2c(n1)OC[C@@H](OCc1ccc(OC(F)(F)F)cc1)C2 [Pretomanid, (6S)-2-nitro-6-{[4-(trifluoromethoxy)benzyl]oxy}-6,7-dihydro-5H-imidazo[2,1-b][1,3]oxazine]
- AUC(0-t) ([1]; CByB6F1 (wild-type), mouse, female, pretomanid 10 mg/kg/day oral, Day 14, plasma, read-out: Pretomanid AUC0-24): 24.9 µg·h/mL
- Cmax ([1]; CByB6F1 (wild-type), mouse, female, pretomanid 30 mg/kg/day oral, Day 14, plasma): 6.9 µg/mL
- AUC(0-t) ([1]; CByB6F1 (wild-type), mouse, female, pretomanid 30 mg/kg/day oral, Day 14, plasma, read-out: Pretomanid AUC0-24): 87.5 µg·h/mL
- Cmax ([1]; CByB6F1 (wild-type), mouse, female, pretomanid 80 mg/kg/day oral, Day 14, plasma): 16.2 µg/mL
- AUC(0-t) ([1]; CByB6F1 (wild-type), mouse, female, pretomanid 80 mg/kg/day oral, Day 14, plasma, read-out: Pretomanid AUC0-24): 186 µg·h/mL
- Exposure to pretomanid relative to exposure to the M50 metabolite ([1]; Day 14, all dose levels, both sexes): more than 10 times
- AUC(0-t) ([1]; both sexes, CByB6F1 (wild-type), mouse, plasma, oral, high dose (40 male, 80 female mg/kg/day), read-out: Gender averaged mouse AUC0-24 of pretomanid): 149 µg·h/mL
- Cmax ([1]; wild-type CByB6F1, mouse, female, pretomanid 10 mg/kg/day oral, Day 14, plasma): 2.9 µg/mL
- Cmax ([1]; wild-type CByB6F1, mouse, male, pretomanid 5 mg/kg/day oral, Day 14, plasma): 1.8 µg/mL
- AUC(0-t) ([1]; wild-type CByB6F1, mouse, male, pretomanid 5 mg/kg/day oral, Day 14, plasma, read-out: Pretomanid AUC0-24): 13.7 µg·h/mL
- Cmax ([1]; wild-type CByB6F1, mouse, male, pretomanid 15 mg/kg/day oral, Day 14, plasma): 4.9 µg/mL
- AUC(0-t) ([1]; wild-type CByB6F1, mouse, male, pretomanid 15 mg/kg/day oral, Day 14, plasma, read-out: Pretomanid AUC0-24): 50.8 µg·h/mL
- Cmax ([1]; wild-type CByB6F1, mouse, male, pretomanid 40 mg/kg/day oral, Day 14, plasma): 10.4 µg/mL
- AUC(0-t) ([1]; wild-type CByB6F1, mouse, male, pretomanid 40 mg/kg/day oral, Day 14, plasma, read-out: Pretomanid AUC0-24): 112 µg·h/mL
- Change in number of revertant colonies ([2]; any tester strain under any conditions): did not cause a significant increase
- Cytotoxicity in the Ames assay [2]: no appreciable cytotoxicity
- Mutagenic potential ([2]; with and without S9): negative
- Mean Number of Revertants/Plate ([3]; TA100 +S9, 100 μg/plate): 137 Revertants/Plate
- Mean Number of Revertants/Plate ([3]; TA100 +S9, 333 μg/plate): 179 Revertants/Plate
- Mean Number of Revertants/Plate ([3]; TA100 +S9, 1000 μg/plate): 173 Revertants/Plate
- Mean Number of Revertants/Plate ([3]; TA100 +S9, 3333 μg/plate): 166 Revertants/Plate
- Mean Number of Revertants/Plate ([3]; TA100 +S9, 5000 μg/plate): 179 Revertants/Plate
- Mean Number of Revertants/Plate ([3]; TA100 −S9, 100 μg/plate): 119 Revertants/Plate
- Mean Number of Revertants/Plate ([3]; TA100 −S9, 333 μg/plate): 107 Revertants/Plate
- Mean Number of Revertants/Plate ([3]; TA100 −S9, 1000 μg/plate): 115 Revertants/Plate
- Mean Number of Revertants/Plate ([3]; TA100 −S9, 3333 μg/plate): 99 Revertants/Plate
- Mean Number of Revertants/Plate ([3]; TA100 −S9, 5000 μg/plate): 106 Revertants/Plate
- Mean Number of Revertants/Plate ([4]; TA1537 +S9, 100 μg/plate): 9 Revertants/Plate
- Mean Number of Revertants/Plate ([4]; TA1537 +S9, 333 μg/plate): 6 Revertants/Plate
- Mean Number of Revertants/Plate ([4]; TA1537 +S9, 1000 μg/plate): 5 Revertants/Plate
- Mean Number of Revertants/Plate ([4]; TA1537 +S9, 3333 μg/plate): 5 Revertants/Plate
- Mean Number of Revertants/Plate ([4]; TA1537 +S9, 5000 μg/plate): 4 Revertants/Plate
- Mean Number of Revertants/Plate ([4]; TA1537 −S9, 100 μg/plate): 5 Revertants/Plate
- Mean Number of Revertants/Plate ([4]; TA1537 −S9, 333 μg/plate): 5 Revertants/Plate
- Mean Number of Revertants/Plate ([4]; TA1537 −S9, 1000 μg/plate): 10 Revertants/Plate
- Mean Number of Revertants/Plate ([4]; TA1537 −S9, 3333 μg/plate): 5 Revertants/Plate
- Mean Number of Revertants/Plate ([4]; TA1537 −S9, 5000 μg/plate): 5 Revertants/Plate
- Mean Number of Revertants/Plate ([5]; TA1535 +S9, 100 μg/plate): 12 Revertants/Plate
- Mean Number of Revertants/Plate ([5]; TA1535 +S9, 333 μg/plate): 13 Revertants/Plate
- Mean Number of Revertants/Plate ([5]; TA1535 +S9, 1000 μg/plate): 10 Revertants/Plate
- Mean Number of Revertants/Plate ([5]; TA1535 +S9, 3333 μg/plate): 11 Revertants/Plate
- Mean Number of Revertants/Plate ([5]; TA1535 +S9, 5000 μg/plate): 14 Revertants/Plate
- Mean Number of Revertants/Plate ([5]; TA1535 −S9, 100 μg/plate): 9 Revertants/Plate
- Mean Number of Revertants/Plate ([5]; TA1535 −S9, 333 μg/plate): 10 Revertants/Plate
- Mean Number of Revertants/Plate ([5]; TA1535 −S9, 1000 μg/plate): 10 Revertants/Plate
- Mean Number of Revertants/Plate ([5]; TA1535 −S9, 3333 μg/plate): 8 Revertants/Plate
- Mean Number of Revertants/Plate ([5]; TA1535 −S9, 5000 μg/plate): 7 Revertants/Plate
- Mean Number of Revertants/Plate ([6]; TA98 +S9, 100 μg/plate): 22 Revertants/Plate
- Mean Number of Revertants/Plate ([6]; TA98 +S9, 333 μg/plate): 26 Revertants/Plate
- Mean Number of Revertants/Plate ([6]; TA98 +S9, 1000 μg/plate): 23 Revertants/Plate
- Mean Number of Revertants/Plate ([6]; TA98 +S9, 3333 μg/plate): 16 Revertants/Plate
- Mean Number of Revertants/Plate ([6]; TA98 +S9, 5000 μg/plate): 22 Revertants/Plate
- Mean Number of Revertants/Plate ([6]; TA98 −S9, 100 μg/plate): 25 Revertants/Plate
- Mean Number of Revertants/Plate ([6]; TA98 −S9, 333 μg/plate): 12 Revertants/Plate
- Mean Number of Revertants/Plate ([6]; TA98 −S9, 1000 μg/plate): 18 Revertants/Plate
- Mean Number of Revertants/Plate ([6]; TA98 −S9, 3333 μg/plate): 17 Revertants/Plate
- Mean Number of Revertants/Plate ([6]; TA98 −S9, 5000 μg/plate): 15 Revertants/Plate
- Mean Number of Revertants/Plate (Escherichia coli WP2uvrA; WP2uvrA +S9, 100 μg/plate): 16 Revertants/Plate
- Mean Number of Revertants/Plate (Escherichia coli WP2uvrA; WP2uvrA +S9, 333 μg/plate): 17 Revertants/Plate
- Mean Number of Revertants/Plate (Escherichia coli WP2uvrA; WP2uvrA +S9, 1000 μg/plate): 15 Revertants/Plate
- Mean Number of Revertants/Plate (Escherichia coli WP2uvrA; WP2uvrA +S9, 3333 μg/plate): 10 Revertants/Plate
- Mean Number of Revertants/Plate (Escherichia coli WP2uvrA; WP2uvrA +S9, 5000 μg/plate): 14 Revertants/Plate
- Mean Number of Revertants/Plate (Escherichia coli WP2uvrA; WP2uvrA −S9, 100 μg/plate): 23 Revertants/Plate
- Mean Number of Revertants/Plate (Escherichia coli WP2uvrA; WP2uvrA −S9, 333 μg/plate): 21 Revertants/Plate
- Mean Number of Revertants/Plate (Escherichia coli WP2uvrA; WP2uvrA −S9, 1000 μg/plate): 17 Revertants/Plate
- Mean Number of Revertants/Plate (Escherichia coli WP2uvrA; WP2uvrA −S9, 3333 μg/plate): 11 Revertants/Plate
- Mean Number of Revertants/Plate (Escherichia coli WP2uvrA; WP2uvrA −S9, 5000 μg/plate): 16 Revertants/Plate

From PMC9411704, “Assessment of the Carcinogenic Potential of Pretomanid in Transgenic Tg.rasH2 Mice” (International Journal of Toxicology, 2022)
